These results are taken from a melting point compilation (Tetko et al.; mined from patent text by program, amines drawn as free bases though some values may be those of a salt).

By melting point is commonly meant the temperature of the solid-liquid transition. For `CC(C)=CCOC1=CC(=O)c2ccccc2C1=O`, the melting point is 60 °C. As for `CC(C)(C)c1ccc(CCC(O)CCC2CCCCC2)cc1NC(=O)CC1c2ccccc2Oc2ccccc21` (stereo not given), the figure is 136 to 137 °C; as for `O=C(O)c1oc(=O)c2ncccc2c1-c1ccccc1`, 288 to 290 °C. Compound `NNC(=O)C[C@H](O)c1ccccc1` yielded a melting point of 180 °C. Under `CC(C)(C)c1cc(-c2ccc(N)cc2)cc(C(C)(C)C)c1O` stands 113 to 114 °C; under `CC1(C)CN(c2ncc(C(=O)N(c3cccc(C(F)(F)F)c3)C3CCCC3)c(N)n2)C(=O)N1`, 135 to 139 °C; under `COc1ccccc1CC(=O)Nc1cc(Cl)c(Cl)cc1[N+](=O)[O-]`, 123 to 125 °C. Regarding `CC(=O)NC1Cc2cccc3cccc(c23)C1O` (stereo not given), the melting point is 205 to 206 °C.

On to `CC(C)(C)c1cc(SCCO)cc(C(C)(C)C)c1O`, for which the melting point is 66 °C. For `CC(C)Oc1c(C(=O)O)sc(-c2ccccc2)c1Br`, the melting point lay in the range of 159 to 160 °C. Under `C/C(=C\c1ccc(C(=O)O)cc1)c1ccc(O)c(C(C)(C)C)c1` stands 209 °C; under `O=C(O)c1cc(-c2ccccc2)c2ccsc2c1`, 222 °C. Compound `CCCCCCCCCCCCCOc1ccc(C(C)=O)o1` displayed a melting point of 61 to 62 °C. Under `O=S(=O)(NCc1ccccc1)c1ccc(N(OCC2CCCCC2)c2ncc3[nH]cnc3n2)cc1` stands 222 to 224 °C; under `COc1ccc2c(c1)c(CC(=O)N(C)O)c(C)n2C(=O)c1ccc(Cl)cc1`, 170 to 171 °C.

`O=C(O)c1ccc(F)cc1NS(=O)(=O)c1ccccc1` yielded a melting point of 158 to 159 °C.

For `CCC(CC)Nc1c([N+](=O)[O-])cc(C)c(COC(=O)NC)c1[N+](=O)[O-]`, the melting point lay within 117 to 120 °C. Under `O=C(OC1c2nccnc2C(=O)N1c1ccc2ccc(Cl)cc2n1)N1CCNCC1` (stereo not given) stands 242 °C; under `CCNC(=O)c1sc(SC)cc1[Si](C)(C)C`, 58 to 61 °C; under `COc1ccc(CN2CCc3cc(OCc4ccccc4)c(OC)cc3C2)cc1OC`, 98 to 99 °C. `CC12CCC(C(=O)O)=CC1=CCC1C2CCC2(C)C(C(=O)CCC3CCCCC3)CCC12` (stereo not given): the melting point worked out at 247 °C.

`CCc1cc(C(N)=O)nn1C` showed a melting point of 170 to 172 °C. The compound `Cc1ccc2c(c1)c(N1CCN(C(=O)c3cccs3)CC1)c(C#N)c(=O)n2C` displayed a melting point of 214 °C.

`CCCCCCc1ccc(-n2c(-c3ccc(Br)cc3)ccc2-c2ccc(Br)cc2)cc1`: the melting point fell in the range of 198 to 199 °C. Under `COc1cc(C(=O)c2nc(C#N)c3ccccn23)ccc1[N+](=O)[O-]` stands 219 °C; under `O=C(O)c1nc(Oc2cccc(C(F)(F)F)c2)ccc1Cl`, 90 to 92 °C; under `CC(=O)N(C(=O)N1CC(c2ccc(Cl)cc2)C(c2ccc(Cl)cc2)=N1)c1ccc(C(F)(F)F)cc1` (stereo not given), 166 to 168 °C.

Compound `Nc1cccc(NC(=O)c2ccc(CNC(=O)OCc3cccnc3)cc2)c1` gave a melting point of 156 °C.

In the case of `COCc1cccc(C(=O)c2nc(OC)cc(OC)n2)c1N`, the melting point was 100 to 101 °C.

The compound `CC1(C)Cc2cccc(S(N)(=O)=O)c2S1` came in with a melting point of 102 to 104 °C.

`COc1ccc2[nH]c(C=Cc3ccc(OC)c(OC)c3)nc2c1` registered a melting point of 246 to 249 °C. For `NC(=O)COc1ccc2sc(S(N)(=O)=O)cc2c1`, the melting point lay within 197 to 198 °C. Under `CCN(Cc1cc(C(C)=O)ccc1NC(C)=O)C1CCCCC1` stands 98 to 100 °C; under `COc1ccc(Sc2cc3ccccc3nn2)cc1`, 108 °C. Compound `COC(=O)C(C)(C)C(=O)c1ccc(-n2cncn2)cc1` displayed a melting point of 84 to 85 °C. Compound `CCCCCCCCCCNC(=O)c1cccc(N)c1` displayed a melting point of 56 to 58 °C. Under `C[C@@H]1CC[C@@H](C(C)(C)c2ccccc2)[C@@H](Oc2cn(C(c3ccccc3)c3ccccc3)c(=O)o2)C1` stands 118 to 120 °C; under `OCCSc1ccc2cc(SCCO)ccc2c1`, 113 to 117 °C. As for `CCOC(=O)C=Cc1cc([N+](=O)[O-])cc2c1CCCC2`, the figure is 95 to 96 °C; as for `Cc1ccc(-c2ccc(S(C)(=O)=O)cc2)n1-c1ccc(-c2ccoc2)c(Cl)c1`, 165 to 168 °C; as for `O=C(c1ccccc1)N1CCn2c(CN3CCOCC3)ccc2C1`, 101 to 102 °C. As for `O=c1c2c(Cl)cc(Cl)cc2[nH]c2c(O)nn(-c3ccccc3)c(=O)c12`, the figure is 361 to 363 °C; as for `CCNC(=O)n1nc(Oc2c(Cl)cc(C(F)(F)F)cc2Cl)cc1C(C)C`, 74 to 76 °C; as for `CCC(C)(C)c1cc(-c2ccc(C=C3SC(=O)NC3=O)cn2)cc2nc(C)oc12`, 312 °C. `C=CC(=O)NCC(C(C)=O)C(=O)c1ccccc1` (stereo not given) showed a melting point of 125 to 126 °C. As to `CC(=O)OCC1OC(OS(=O)(=S)c2ccccc2)C(OC(C)=O)C(OC(C)=O)C1OC(C)=O` (stereo not given), the melting point is 53 to 54 °C. Under `CCCCC(=N)NC(=O)Nc1cccc(Cl)c1` stands 135 to 137 °C; under `NC(=O)c1ccc(N2CCN(CCC3C=Cc4ccccc43)CC2)cc1` (stereo not given), 207 °C; under `CN1CCC(=O)C(=C2SC=CS2)C1=O`, 148 to 153 °C. As to `CC(=O)C1CCC2C3CCC4CC(O)C(O)CC4(C)C3C(=O)CC12C` (stereo not given), the melting point lay within 194 to 198 °C.

Consider `CN(C)C(=O)c1ncn2c(=O)n(CCCl)nnc12`, for which the melting point was in the range of 114 to 116 °C. Under `Oc1c2c(nn1-c1ccccn1)CCCC2` stands 121 to 122 °C; under `ClC1=Nc2cccc(Br)c2C2=NCCN12`, 220 to 223 °C. Under `O=C(Nc1cc(CN2CCCCC2)c(O)c(CN2CCCCC2)c1)c1ccccc1` stands 138 to 140 °C; under `NCC(=O)Nc1ccc(S(=O)(=O)c2cccc(Cl)c2)cc1`, 195 to 196 °C. As for `CCOC(=O)CNC(=O)n1nc(Oc2c(Cl)cc(C(F)(F)F)cc2Cl)cc1C`, the figure is 50 to 53 °C; as for `COc1ccc(Cn2c(C)cc3c(=O)[nH][nH]c(=O)c32)cc1`, 300 °C; as for `COC(=O)c1ccc(F)c(S(N)(=O)=O)c1`, 127 to 129 °C. `CS(=O)(=O)NCCCCn1c(CO)nc2c(N)nc3ccccc3c21` displayed a melting point of 216 to 219 °C. Under `C/C(=C\C(N)=O)c1ccc2c(c1)C(C)(C)OC(=O)N2` stands 198 to 200 °C. Under `CCCCCCCC[C@H](C(=S)Nc1c(SC)ccc2ncccc12)c1ccccc1` stands 126 to 128 °C; under `COc1ccc2c(=O)cc(-c3ccccc3Cl)oc2c1`, 148 to 150 °C. As for `O=C(CCNC1CC1)Nc1cc(-c2nnc(SCc3cccc(F)c3)o2)ccn1`, the figure is 102 to 103 °C. Regarding `CCc1cc2oc3cc(-c4ccccc4Cl)c4c(c3c2cc1O)C(=O)NC4=O`, the melting point is 265 to 268 °C. Under `CNC(=S)C1(c2ccncc2)CCCCC1=O` (stereo not given) stands 182 to 183 °C. Under `COc1ccc2cc([C@H](C)C(=O)OCC(=O)N3CCC(CCO[N+](=O)[O-])CC3)ccc2c1` stands 83 to 85 °C; under `O=C(c1ccccc1)c1ccc([N+](=O)[O-])c(C(=O)NCc2ccccc2)c1`, 167 °C; under `CC(C)(C)C(=O)Cn1cncn1`, 62 to 64 °C. `O=C(O)CCCCCCCNS(=O)(=O)c1ccc(F)cc1` returned a melting point of 97 to 98 °C. Under `CC1(C)CC(=C(c2ccc(O)cc2)c2ccc(-c3ccccc3C(=O)O)cc2)CC(C)(C)C1` stands 230 to 231 °C; under `NC(=O)C1CCCN1c1nc(-c2ccccc2)nc2[nH]c(CN3CCC(O)(c4ccccc4)CC3)cc12` (stereo not given), 234 to 235 °C. `CS(=O)(=O)c1ccc(-c2cc(Cl)ccc2OCC(=O)O)cc1Cl` registered a melting point of 140 to 142 °C. `Cc1nc2cnccc2n1-c1ccc(OCc2cccc(C(=O)Nc3nc4cc(F)ccc4s3)c2)cc1` registered a melting point of 244 to 246 °C. Under `CCOC(=O)c1ncn2c1CN=C(c1ccccc1F)c1cc([N+](=O)[O-])ccc1-2` stands 228 to 231 °C. Regarding `CCCN(Cc1ccccc1C(=O)O)c1ccc(CC(=O)O)cc1`, the melting point was determined as 163 °C. As for `COc1cn(-c2ccc(-c3c(C)noc3C)cc2F)nc(-c2ccnn2-c2ccccc2)c1=O`, the figure is 200 to 202 °C; as for `CN(C)C1CCN(Cc2ccc(COc3cccc4c3CN(C3CCC(=O)NC3=O)C4=O)cc2)CC1` (stereo not given), 209 to 211 °C; as for `Cc1c(-c2cncn2C)[nH]c(=O)c2c1ccc1nc(Nc3c(Cl)cccc3Cl)n(C)c12`, above 300 °C.

`COc1ccc(-c2ccc(-c3nc(N)nc(N)n3)cc2)cc1` registered a melting point above 260 °C.

`CCOC(=O)Cc1ccc(NC(=O)Nc2ccccc2OC)cc1` had a melting point of 107 to 109 °C. Under `Cc1ccc(-c2c(-c3ccc(S(N)(=O)=O)cc3)cnn(-c3ccc(F)cc3)c2=O)cc1F` stands 187 to 188 °C; under `Nc1ccc(C#Cc2c(F)c(F)nc(F)c2F)cc1`, 164 to 165 °C; under `N#Cc1nn(-c2c(Cl)cc(C(F)(F)F)cc2Cl)c(N)c1C1=CCCCC1`, 175 to 177 °C. The compound `CCCCc1nn(-c2ccc([N+](=O)[O-])cc2C(F)(F)F)c(=O)[nH]1` displayed a melting point of 126 to 128 °C. With `O=C1c2ccccc2C(=O)N1CCN1CCN(C(c2ccc(F)cc2)c2ccc(F)cc2)CC1`, the melting point lay in the range of 125 to 126 °C. As for `CN=C(NC#N)NCCSCc1ccco1`, the figure is 78 to 82 °C. The compound `COc1cccc(-c2n[nH]c(-c3ccccc3C)n2)c1` yielded a melting point of 100 to 102 °C. `COC(=O)c1ccc(/C=C/c2ccc(SC)cc2)nc1` gave a melting point of 157 to 159 °C. Under `O=C1CCCN1c1ccc(CCN2CCN(c3ccccc3Cl)CC2)cc1` stands 132 °C; under `COC(=O)CCCc1cc2nc(OC)ccc2n1S(=O)(=O)c1ccccc1`, 113 to 114 °C.
